Results as given in patent US20240181000A1, “LGG-DERIVED PEPTIDES AND METHODS OF USE THEREOF” (Ohio State Innovation Foundation, priority 2021, published 2024).
No end group written: not given here.

How the values were obtained:
[1] = test system: commensal and probiotic bacteria; assay: Effect against beneficial microbes; assay type: cell-based; conditions: at MICs
Procedure: Effect against beneficial microbes: Peptides (P1, P2, and P3) were tested against different commensal and probiotic bacteria to determine their specificity of activity as described previously. Peptides were added at their MICs to 100 μL of known concentration of bacterial cultures and cultures were incubated under required conditions. Following incubation, OD600 of cultures was measured to determine the effect of peptides on bacterial growth.

[2] = test system: APEC
Procedure: FIGS. 58A-58B show the APEC load after treatment 8 days dpi with LGG and 50 mg/mL of peptides in drinking water.

[3] = test system: ST membrane; assay: Confocal microscopy (bacterial cytological profiling); assay type: cell-based, Salmonella enterica; conditions: 5×MIC, 3 h
Procedure: Mode of action of peptides analyzed through confocal microscopy: To determine the mode of action of P1 and P2, bacterial cytological profiling was conducted using confocal microscopy as described in. […] Incubated bacteria cultures were then centrifuged and re-suspended in 100 μL sterile water. Following suspension, 1 μg/mL of FM4-64 (Invitrogen™ Molecular Probes™) and 5 μM Syto-9 (Invitrogen™ Molecular Probes™) stains were added and incubated for 45 mins […] with 150 rpm. After incubation, the samples were centrifuged, and bacteria was re-suspended in 10 μl sterile water. For microscopic analysis, 3 μL of bacterial suspension was added to glass slides with 1.2% agar and 20% LB media. Untreated ST bacterial culture was used as a control. Leica TCS SP6 confocal scanning microscope (Excitation/emission (nm); FM4-64 (515/640), SYTO-9 (485/498) was used at the Ohio State University's Molecular and Cellular Imaging Center (MCIC; mcic.osu.edu/microscopy).

[4] = test system: multiple APEC serotypes; assay type: cell-based, E. coli
Procedure: Anti-APEC spectrum determination: Peptides (P1, P2, and P3) were tested against multiple APEC serotypes/strains to determine their spectrum of activity. Peptides were added at their MICs and the growth inhibitory activity of the peptides was determined as described above.

[5] = test system: APEC; assay: Alanine scanning SAR, anti-APEC activity; assay type: cell-based, E. coli
Description: Structure-activity relationship (SAR) study: To identify the crucial amino acid residues required for the peptide activity, alanine scanning libraries of peptides (P1, P2, and P3) (www.genscript.com/alanine_scanning.html) were synthesized (Table 22) and tested for anti-APEC activity as described above. The anti-APEC activity of peptide analogues (SEQ ID NO: 67-84) was then compared with the original peptide and the relative importance (% growth inhibition by peptide analogue/% growth inhibition by original peptide×100%) of each AA residue of the peptide was determined.

[6] = test system: MlaA; assay: Immunoblot analysis; assay type: cell-based, E. coli; conditions: densitometry
Procedure: (§1) Immunoblot analysis: To corroborate the findings of gene expression study, level of OmpC and MlaA proteins upon peptides (P1, P2, and P3) treatment was investigated as described previously. Peptides treated culture of APEC O78 was prepared as above and DMSO treated culture was used as control. Post-treatment, the fractions of cytoplasmic and membrane proteins was prepared using ultracentrifugation as previously described. The concentrations of fractionated membrane proteins were then normalized based on 280 nm and separated on a 12% SDS-PAGE. For immunoblot analysis, membrane proteins (25 μg) resolved on SDS-PAGE above were electrotransferred onto an Immuno-Blot® PVDF Membrane (Bio-Rad) and probed for OmpC and MlaA using anti-OmpC (1:2,000) (ThermoFisher Scientific) and anti-MlaA (1:15,000; Dr. Thomas J. Silhavy) polyclonal antibodies and goat anti-rabbit IgG HRP-conjugated secondary antibody (Sigma-Aldrich). The membrane was developed with Clarity Western ECL Substrate (Bio-Rad) and visualized in a FluorChem Q (proteinsimple) imager. The density of OmpC and MlaA proteins was quantified using ImageJ software.

[7] = test system: OmpC; assay: Immunoblot analysis; assay type: cell-based, E. coli; conditions: densitometry
Procedure: as §1

[8] = test system: ST; assay: Alanine scanning SAR, anti-Salmonella activity; assay type: cell-based, Salmonella enterica
Procedure: Relative Importance was calculated using formula: (percent growth in analogue-percent growth in original peptide)/(percent growth in DMSO-treated control-percent growth in original peptide)×100.
Structural-activity relationship (SAR) study: Structure activity relationship analysis was used to better determine the important amino acids required for Anti-Salmonella activity of P1 and P2. Alanine scanning libraries of P1 and P2 were synthesized from Genscript (Table 28; (www.genscript.com/alanine_scanning.html) and tested for inhibitory activity as described above. Relative importance [(percent growth in analogue-percent growth in original peptide)/(percent growth in DMSO-treated control-percent growth in original peptide)×100] was used to identify crucial amino acids of each amino acid residue of the peptide. Two independent experiments were conducted to ensure accuracy.

[9] = test system: intracellular APEC O78 in HD11 cells; assay: Intracellular survival of APEC in HD11 cells (gentamicin protection assay); assay type: cell-based, chicken
Procedure: Effect of peptides on intracellular survival of APEC in HD11 cells: To determine the efficacy of peptides (P1, P2, and P3) against intracellular APEC, gentamicin protection assay was conducted in HD 11 (chicken macrophage) cells as described previously. The cells were cultured in Iscove's Modified Dulbecco's Media (IMDM) supplemented with 10% fetal bovine serum (FBS), 2 mM L-glutamine and 2% penicillin-streptomycin (P/S) solution and maintained at 37° C. incubator with 5% C02. Cells (approximately 10^4 cells/well) were seeded in a 96-well cell culture plate in 100 μL culture media and incubated for 36 h prior to using for the assay. Following incubation, the cells were replenished with 100 μL of fresh cell culture media with no FBS and antibiotic and incubated until infection (2 h). For the infection, the overnight grown APEC O78 was subcultured to mid-logarithmic phase, centrifuged, washed twice with PBS, adjusted to 1×10^7 CFU/mL. One-hundred microliters of the APEC suspension (MOI: 100) was added to each well of the 96-well plate and incubated for 1 h to allow the invasion. The cells were washed twice and treated with gentamicin (150 μg/mL) to kill the extracellular APEC. The cells were treated with peptides at 12 mM, 15 mM, and 18 mM concentrations. Infected but not treated, infected and DMSO-treated, and non-infected and not treated cells were used as controls. Three independent experiments were conducted.

PDENK [Peptide P2, PDENK]
Growth of Gram-negative beneficial bacteria, particularly E. coli [1]: inhibited | Growth of Gram-positive beneficial bacteria [1]: no effect | Reduction of APEC colonization in ceca ([2]; LGG and 50 mg/mL of peptides in drinking water, 8 days dpi): 1.02 Log CFU/gm | Bodyweight ([2]; in vivo): no significant effect | ST membrane in confocal microscopy (FM4-64 stain) [3]: little to no red stain present | Growth inhibition against APEC serotypes [4]: 95.0-100% | Relative importance of D and E in P2 [5]: 97.1% | Relative importance of P, N and K in P2 [5]: < 40% | MlaA level decreased vs untreated APEC [6]: 1.40 folds | OmpC level lower than in untreated APEC [7]: 9.27 folds | Relative importance of Asparagine in P2 [8]: 35% | Relative importance of Aspartate in P2 [8]: 82% | Relative importance of Proline in P2 [8]: zero relative importance | Relative importance of glutamic acid in P2 [8]: 77% | Relative importance of lysine in P2 [8]: 32% | Intracellular APEC (log CFU/mL) ([9]; 12 mM, untreated 3.75 ± 0.10): 3.33 ± 0.03 log CFU/mL | Intracellular APEC (log CFU/mL) ([9]; 15 mM): No intracellular APEC was recovered | Intracellular APEC (log CFU/mL) ([9]; 15 mM, listed as P-2): 0.00 ± 0.00 log CFU/mL | Intracellular APEC (log CFU/mL) ([9]; 18 mM): 0.00 ± 0.00 log CFU/mL
